Assay results as given in PubChem BioAssay AID330 (DTP/NCI, 2004).
“And” between values parts separate entries of the source, which are not always exact repeats. Identical values can stand only once. Inconclusive results and toxic doses are left out.

Test system: P388 leukemia ip, CD2F1 mice, survival T/C
Experiment: NCI In Vivo Anticancer Drug Screen. Data for tumor model P388 Leukemia (intraperitoneal) in CD2F1 (CDF1) mice
Conditions: endpoint: median survival time, higher = longer survival
Procedure, shortened: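 Mice carrying the transplanted tumor received test compound or vehicle. Survival was recorded in each group, and the value is the treated-group measurement divided by that of the vehicle-treated control group.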

[1] = dose: 100.0 mg/kg/injection, schedule: Q04DX002 (ip), vehicle: saline with Tween-80

**Q.** With `CO[C@H]1Nc2c(ccc(C)c2O)C(=O)N2C=C(/C=C/C(N)=O)C[C@@H]12` as the molecule, how does the T/C (dose: 0.05 mg/kg/injection, schedule: Q04DX003 (ip), vehicle: DMSO) read?
**A.** 106 % of control

**Q.** And the T/C (dose: 0.05 mg/kg/injection, schedule: Q04DX003 (ip), vehicle: saline)?
**A.** 122 % of control

**Q.** And the T/C (dose: 0.1 mg/kg/injection, schedule: Q04DX003 (ip), vehicle: DMSO)?
**A.** 112 % of control

**Q.** And the T/C (dose: 0.13 mg/kg/injection, schedule: Q04DX003 (ip), vehicle: saline + alcohol)?
**A.** 152 % of control

**Q.** And the T/C (dose: 0.2 mg/kg/injection, schedule: Q04DX003 (ip), vehicle: DMSO)?
**A.** 118 % of control

**Q.** What about the T/C (dose: 0.2 mg/kg/injection, schedule: Q04DX003 (ip), vehicle: saline) of the same molecule?
**A.** 122 % of control

**Q.** What about the T/C (dose: 0.22 mg/kg/injection, schedule: Q04DX003 (ip), vehicle: saline + alcohol) of the same molecule?
**A.** 153 % of control and 161 % of control (2×)

**Q.** And the T/C (dose: 0.4 mg/kg/injection, schedule: Q04DX003 (ip), vehicle: saline)?
**A.** 155 % of control

**Q.** And the T/C (dose: 0.6 mg/kg/injection, schedule: Q04DX003 (ip), vehicle: saline + alcohol)?
**A.** 185 % of control

**Q.** And the T/C (dose: 0.8 mg/kg/injection, schedule: Q04DX003 (ip), vehicle: saline)?
**A.** 110 % of control

**Q.** And the T/C (dose: 200.0 micrograms/kg/injection, schedule: Q01DX009 (ip), vehicle: saline)?
**A.** 150 % of control

**Q.** And the T/C (dose: 200.0 micrograms/kg/injection, schedule: Q04DX003 (ip), vehicle: saline with Tween-80)?
**A.** 165 % of control

**Q.** Which results are given for `CC1(C)OC2(C)CCC1C1C2N1C(=O)Nc1cccc2ccccc12` (stereo not given)?
**A.** T/C (dose: 50.0 mg/kg/injection, schedule: Q01DX005 (ip), vehicle: saline with Tween-80): 99 % of control; T/C (dose: 100.0 mg/kg/injection, schedule: Q01DX005 (ip), vehicle: saline with Tween-80): 97 % of control; T/C (dose: 200.0 mg/kg/injection, schedule: Q01DX005 (ip), vehicle: saline with Tween-80): 93 % of control

**Q.** With `COc1cc2c(c(OC)c1OC)-c1ccc(O)c(=O)cc1C(N)CC2` (stereo not given) as the molecule, how does the T/C (dose: 3.12 mg/kg/injection, schedule: Q01DX008 (ip), vehicle: saline) read?
**A.** 101 % of control and 97 % of control

**Q.** What about the T/C (dose: 6.25 mg/kg/injection, schedule: Q01DX008 (ip), vehicle: saline) of the same molecule?
**A.** 100 % of control and 102 % of control

**Q.** What about the T/C (dose: 12.5 mg/kg/injection, schedule: Q01DX008 (ip), vehicle: saline) of the same molecule?
**A.** 102 % of control and 105 % of control

**Q.** What about the T/C (dose: 25.0 mg/kg/injection, schedule: Q01DX008 (ip), vehicle: saline) of the same molecule?
**A.** 102 % of control and 105 % of control

**Q.** What about the T/C (dose: 50.0 mg/kg/injection, schedule: Q01DX008 (ip), vehicle: saline) of the same molecule?
**A.** 105 % of control and 110 % of control

**Q.** What about the T/C (dose: 100.0 mg/kg/injection, schedule: Q01DX008 (ip), vehicle: saline) of the same molecule?
**A.** 109 % of control and 113 % of control

**Q.** Which T/C (dose: 15.0 mg/kg/injection, schedule: Q01DX005 (ip), vehicle: saline with Tween-80) does the source give for `O=C(NCCNC(=O)c1cc(Cl)cc(Cl)c1O)c1cc(Cl)cc(Cl)c1O` here?
**A.** 92 % of control

**Q.** What about the T/C (dose: 30.0 mg/kg/injection, schedule: Q01DX005 (ip), vehicle: saline with Tween-80) of the same molecule?
**A.** 92 % of control

**Q.** What about the T/C (dose: 60.0 mg/kg/injection, schedule: Q01DX005 (ip), vehicle: saline with Tween-80) of the same molecule?
**A.** 87 % of control and 89 % of control

**Q.** For `O=C1NC(N(CCCl)CCCl)=NC1(c1ccccc1)c1ccccc1`, which T/C (dose: 12.5 mg/kg/injection, schedule: Q04DX002 (ip), vehicle: saline with Tween-80) is on record?
**A.** 97 % of control

**Q.** And the T/C (dose: 25.0 mg/kg/injection, schedule: Q04DX002 (ip), vehicle: saline with Tween-80)?
**A.** 94 % of control

**Q.** What about the T/C (dose: 50.0 mg/kg/injection, schedule: Q04DX002 (ip), vehicle: saline with Tween-80) of the same molecule?
**A.** 94 % of control

**Q.** What about the T/C [1] of the same molecule?
**A.** 106 % of control

**Q.** And the T/C (dose: 200.0 mg/kg/injection, schedule: Q04DX002 (ip), vehicle: saline with Tween-80)?
**A.** 96 % of control

**Q.** Which T/C [1] does the source give for `C=CC(C)(CCC=C(C)C)ON(C)C` (stereo not given) here?
**A.** 100 % of control

**Q.** How did the T/C (dose: 25.0 mg/kg/injection, schedule: Q01DX001 (ip), vehicle: saline with Tween-80) turn out when `CC(C)NCc1ccccc1Sc1ccccc1` was run?
**A.** 96 % of control

**Q.** And the T/C (dose: 50.0 mg/kg/injection, schedule: Q01DX001 (ip), vehicle: saline with Tween-80)?
**A.** 104 % of control

**Q.** And the T/C (dose: 100.0 mg/kg/injection, schedule: Q01DX001 (ip), vehicle: saline with Tween-80)?
**A.** 95 % of control

**Q.** Which results are given for `C=C1CC2(CC(C(C)C)CCC2C)OC1=O` (stereo not given)?
**A.** T/C (dose: 100.0 mg/kg/injection, schedule: Q01DX001 (ip), vehicle: saline): 105 % of control; T/C (dose: 200.0 mg/kg/injection, schedule: Q01DX001 (ip), vehicle: saline): 100 % of control; T/C (dose: 400.0 mg/kg/injection, schedule: Q01DX001 (ip), vehicle: saline): 105 % of control

**Q.** What does the source list for `O=C(c1ccc(-c2ccccc2)cc1)C(Br)C(Br)c1ccccc1` (stereo not given)?
**A.** T/C (dose: 25.0 mg/kg/injection, schedule: Q01DX009 (ip), vehicle: other): 90 % of control; T/C (dose: 100.0 mg/kg/injection, schedule: Q01DX009 (ip), vehicle: other): 90 % of control; T/C (dose: 200.0 mg/kg/injection, schedule: Q01DX009 (ip), vehicle: other): 101 % of control; T/C (dose: 400.0 mg/kg/injection, schedule: Q01DX009 (ip), vehicle: other): 116 % of control
